According to US11834698B2, “Process for determining enzyme activity in a cell by activity-based reporter gene technology (ABRGT)” (INDIAN INSTITUTE OF SCIENCE EDUCATION AND RESEARCH, priority 2018, dated 2023):

Columns and labels:
[1] = test system: enhanced green fluorescent protein (EGFP); assay: EGFP control for random GFP-rhodamine interaction in MCF-7 cells; format: cell-based; details: MCF-7, EGFP plasmid, STS 1 μM 4 h, labelled with probe 1
Protocol: FIG. 2 depicts (a) a schematic representation of AbRGT in determining the specific activation of caspase-3 GFPspark tagged enzyme by FRET effect utilizing Rh-VAD-FMK (probe 1). (b) The fluorescence signal was collected in GFP, FRET and Rhodamine (Rh) channels. MCF-7 cells transfected with caspase-3 GFPspark treated with (i) 1 μM STS for 4 h or (ii) 1 μg/ml TRAIL for 5 h and then labelled with probe 1. (iii) Un-transfected MCF-7 cells were treated with 1 μM STS for 4 h and then labelled with the probe 1. MCF-7 cells transfected with enhanced green fluorescent protein (EGFP) plasmid treated (iv) with 1 μM STS or (v) without STS for 4 h and then labelled with probe 1, scale bar, 10 a.u. […] Images for GFP and rhodamine fluorescence signals were collected in GFP and FRET channels pre- and post-bleaching of rhodamine signals. (d) Quantification of change in GFP fluorescence intensity after rhodamine photo-bleaching in both unbleached control region and rhodamine bleached region, region of interest (ROI), area under the white square. […]
To rule out that the obtained FRET signal in [FIG. 2b (i)] is not because of random physical interaction between GFPspark and rhodamine dye, MCF-7 cells were transfected with a plasmid encoding for enhanced green fluorescent protein (EGFP). […] The calculated FRET efficiency for (n=15 cells) is 35±1%. […] The calculated FRET efficiency was 35% [FIG. 7(b)]. […]

[2] = target: T1, caspase-3 GFPspark (Homo sapiens, UniProt P42574); assay: AbRGT FRET imaging / acceptor photobleaching, caspase-3 GFPspark in HeLa cells; format: cell-based; design: host or cells: HeLa; details: STS 1 μM 10 h, probe 1 μM
T1 sequence (P42574 29-175 limits assumed): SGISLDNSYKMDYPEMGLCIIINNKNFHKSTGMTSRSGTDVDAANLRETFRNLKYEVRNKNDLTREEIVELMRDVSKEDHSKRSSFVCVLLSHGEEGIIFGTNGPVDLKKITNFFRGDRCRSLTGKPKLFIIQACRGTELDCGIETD
T1 sequence (P42574 176-277 limits assumed): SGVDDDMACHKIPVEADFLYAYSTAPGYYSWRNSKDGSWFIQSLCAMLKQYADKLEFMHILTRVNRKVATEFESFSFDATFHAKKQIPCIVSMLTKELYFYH

Rhodamine-VAD-fluoromethyl ketone [probe 1]
fluorescence signal in FRET channel, EGFP transfected cells [1]: no fluorescence signal was observed | calculated FRET efficiency [2]: 32±2% | rise in GFP intensity in the ROI ([2]; n=15 cells): 52±5 a.u.
